Assay results published in patent US20170000805A1, “FOOD SUPPLEMENTATION COMPOSITION CONTAINING ONE OR MORE VITAMIN D3 COMPOUNDS AND ONE OR MORE MAGNESIUM SALTS” (DSM IP ASSETS B.V., priority 2006, published 2017).

Legend:
[1] = MgCl2 and Hy-D dosed into the rumen of fistulated cattle: urine pH, urine and blood plasma minerals; type: in vivo
Experimental: Four mature rumen fistulated cattle (approximately 600 kg […] in individual pens and offered 12 kg/day of good quality lucerne chaff throughout the experiment. After a 2 week adaptation to this diet the following treatments were applied daily over 2 weeks to each animal in a Latin Square Design: 1. no supplement (control) 2. […] 3. […]® 1.25% (5 mg 25-hydroxy vitamin D3) MgCl2 plus […]® 1.25 % Each treatment was dosed into the rumen through a cannula each morning during the 2 week experimental period. […] Urine pH was measured at time of collection; blood plasma was decanted after centrifugation and analyzed for calcium, magnesium, potassium, sodium and phosphorus by inductively coupled plasma atomic emission spectrophotometry. The results were analysed as a latin square design making comparisons between treatments after removal of any animal or period effects. The lucerne […] assayed for macro cations together with chloride and sulphur concentrations.

[2] = cited from earlier work
[3] = blood samples on days 7, 13 and 14
[4] = urine samples on days 12, 13 and 14

[Cl-].[Cl-].[Mg+2] [Mg, magnesium chloride]
Blood Plasma composition Ca2+ [1, 3]: 87 mg/L | Blood Plasma composition K+ [1, 3]: 233 mg/L | Blood Plasma composition Mg2+ [1, 3]: 19 mg/L | Blood Plasma composition Na+ [1, 3]: 2280 mg/L | Blood Plasma composition Phosphorus [1, 3]: 74 mg/L | Urine Composition Ca2+ [1, 4]: 397b mg/L | Urine Composition K+ [1, 4]: 6652 mg/L | Urine Composition Mg2+ [1, 4]: 411 mg/L | Urine Composition Na+ [1, 4]: 444 mg/L | Urine Composition Phosphorus [1, 4]: 190 mg/L | Urine pH ([1]; urine samples on days 12, 13 and 14, measured at time of collection): 6.20b

C=C1/C(=C\C=C2/CCC[C@]3(C)[C@@H]([C@H](C)CCCC(C)C)CC[C@@H]23)C[C@@H](O)C[C@@H]1O [1-α-hydroxy vitamin D3]
activity relative to 25-hydroxy vitamin D3 [2]: approximately 10 times

C=C1/C(=C\C=C2/CCC[C@]3(C)[C@@H]([C@H](C)CCCC(C)(C)O)CC[C@@H]23)C[C@@H](O)C[C@@H]1O [1-α-, 25-dihydroxy vitamin D3]
activity relative to 25-hydroxy vitamin D3 [2]: approximately 10 times
